Data published in PubChem BioAssay (NCI).
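Cultured in 96-well plates, cells were exposed to test compound for 48 hours across five concentrations. Abbreviation: GI50, concentration required for 50% inhibition of growth. At the TGI there is no net growth.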

Assays:
Experiment in all cases: NCI anticancer screen, dose series, 48 h
[1] = test system: 786-0 renal
[2] = test system: A498 renal
[3] = test system: A549 NSCLC
[4] = test system: ACHN renal
[5] = test system: BT-549 breast
[6] = test system: CCRF-CEM leukemia
[7] = test system: COLO 205 colon
[8] = test system: DU-145 prostate
[9] = test system: HCC-2998 colon
[10] = test system: HCT-116 colon
[11] = test system: HCT-15 colon
[12] = test system: HL-60(TB) leukemia
[13] = test system: HOP-62 NSCLC
[14] = test system: HOP-92 NSCLC
[15] = test system: HS 578T breast
[16] = test system: HT29 colon
[17] = test system: IGROV1 ovarian
[18] = test system: K-562 leukemia
[19] = test system: KM12 colon
[20] = test system: LOX IMVI melanoma
[21] = test system: M14 melanoma
[22] = test system: MALME-3M melanoma
[23] = test system: MCF7 breast
[24] = test system: MDA-MB-231 breast
[25] = test system: MDA-MB-435
[26] = test system: MOLT-4 leukemia
[27] = test system: NCI-H226 lung
[28] = test system: NCI-H23 lung
[29] = test system: NCI-H460 lung
[30] = test system: NCI-H522 lung
[31] = test system: NCI/ADR-RES ovarian
[32] = test system: OVCAR-3 ovarian
[33] = test system: OVCAR-4 ovarian
[34] = test system: OVCAR-5 ovarian
[35] = test system: OVCAR-8 ovarian
[36] = test system: PC-3 prostate
[37] = test system: RPMI-8226 leukemia
[38] = test system: RXF 393 renal
[39] = test system: SF-268 CNS
[40] = test system: SF-295 CNS
[41] = test system: SF-539 CNS
[42] = test system: SK-MEL-2 melanoma
[43] = test system: SK-MEL-28 melanoma
[44] = test system: SK-MEL-5 melanoma
[45] = test system: SK-OV-3 ovarian
[46] = test system: SN12C renal
[47] = test system: SNB-19 CNS
[48] = test system: SNB-75 CNS
[49] = test system: SR leukemia
[50] = test system: SW-620 colon
[51] = test system: T-47D breast
[52] = test system: TK-10 renal
[53] = test system: U251 CNS
[54] = test system: UACC-257 melanoma
[55] = test system: UACC-62 melanoma
[56] = test system: UO-31 renal

## COc1ccc(-c2nnc(COc3ccc(NC(=O)Nc4cc(C(F)(F)F)cc(C(F)(F)F)c4)cc3F)o2)cc1
[1]
  GI50: 2.2 µM
  TGI: 4.7 µM
[2]
  GI50: 1.56 µM
  TGI: 5.03 µM
[3]
  GI50: 1.58 µM
  TGI: 7.15 µM
[4]
  GI50: 2.54 µM
  TGI: 10.1 µM
[5]
  GI50: 2.54 µM
  TGI: 6.05 µM
[6]
  GI50: 2.86 µM
  TGI: 11.6 µM
[7]
  GI50: 1.9 µM
  TGI: 3.3 µM
[8]
  GI50: 2.15 µM
  TGI: 4.84 µM
[9]
  GI50: 2.42 µM
  TGI: 5.92 µM
[10]
  GI50: 1.63 µM
  TGI: 3.98 µM
[11]
  GI50: 2.01 µM
  TGI: 6.06 µM
[12]
  GI50: 2.34 µM
  TGI: 6.02 µM
[13]
  GI50: 2.69 µM
  TGI: 7.12 µM
[14]
  GI50: 1.5 µM
  TGI: 4.58 µM
[15]
  GI50: 1.99 µM
  TGI: 5.55 µM
[16]
  GI50: 2.21 µM
  TGI: 4.74 µM
[17]
  GI50: 2.95 µM
  TGI: 10.9 µM
[18]
  GI50: 2.66 µM
  TGI: 13.5 µM
[19]
  GI50: 1.51 µM
  TGI: 3.7 µM
[20]
  GI50: 1.95 µM
  TGI: 4.42 µM
[21]
  GI50: 2.97 µM
  TGI: 11.4 µM
[22]
  GI50: 1.85 µM
  TGI: 4.77 µM
[23]
  GI50: 2 µM
  TGI: 5.04 µM
[24]
  GI50: 1.99 µM
  TGI: 4.54 µM
[25]
  GI50: 2.11 µM
  TGI: 5 µM
[26]
  GI50: 2.68 µM
  TGI: 14.1 µM
[27]
  GI50: 2.63 µM
  TGI: 9.69 µM
[28]
  GI50: 1.8 µM
  TGI: 4.38 µM
[29]
  GI50: 1.66 µM
  TGI: 4.38 µM
[30]
  GI50: 2.15 µM
  TGI: 5.35 µM
[31]
  GI50: 1.91 µM
  TGI: 5.16 µM
[32]
  GI50: 1.5 µM
  TGI: 4.66 µM
[33]
  GI50: 2.29 µM
  TGI: 8.53 µM
[34]
  GI50: 2.76 µM
  TGI: 9.49 µM
[35]
  GI50: 1.89 µM
  TGI: 5.85 µM
[36]
  GI50: 1 µM
  TGI: 4.34 µM
[37]
  GI50: 1.35 µM
  TGI: 4.2 µM
[38]
  GI50: 1.96 µM
  TGI: 6.06 µM
[39]
  GI50: 3.04 µM
  TGI: 9.94 µM
[40]
  GI50: 2.11 µM
  TGI: 5.21 µM
[41]
  GI50: 2.09 µM
  TGI: 5.28 µM
[42]
  GI50: 2.66 µM
  TGI: 5.82 µM
[43]
  GI50: 2.4 µM
  TGI: 6.85 µM
[44]
  GI50: 1.73 µM
  TGI: 3.84 µM
[45]
  GI50: 3.76 µM
  TGI: 12.7 µM
[46]
  GI50: 1.93 µM
  TGI: 5.39 µM
[47]
  GI50: 3.33 µM
  TGI: 15.7 µM
[48]
  GI50: 2.02 µM
  TGI: 6.37 µM
[49]
  GI50: 2.19 µM
  TGI: 5.95 µM
[50]
  GI50: 2.19 µM
  TGI: 5.72 µM
[51]
  GI50: 2.62 µM
  TGI: 6.94 µM
[52]
  GI50: 3.49 µM
  TGI: 12.4 µM
[53]
  GI50: 1.54 µM
  TGI: 3.45 µM
[54]
  GI50: 2.08 µM
  TGI: 5.51 µM
[55]
  GI50: 2.11 µM
  TGI: 7.13 µM
[56]
  GI50: 2.09 µM
  TGI: 7.84 µM
